One data set has as its target T1, FimH (Escherichia coli, UniProt Q1R2J4).
T1 construct: endogenous in cells; host or cells: E. coli UTI89 (whole bacteria)
As to the kind of experiment: Hemagglutination inhibition (HAI) assay with UTI89 bacteria and guinea pig red blood cells. Further: ranges in brackets are in nM. In kind it is cell-based. The following applies: HAI titer (EC>90): concentration reducing bacterial agglutination of guinea pig red blood cells by greater than 90%. As for the experimental part: “HAI titer or EC>90” is that concentration of the FimH inhibitor/antagonist which reduces the bacterial agglutination of guinea pig red blood cells by greater than 90%.
The activities of the Examples 1-34 compounds above as FimH antagonists/inhibitors were obtained by the following assay(s), and results are provided in Table 1. Results not provided mean that the activities have not yet been tested.
Hemagglutination Inhibition Assay (HAI)
The hemagglutination inhibition (HAI) assay was performed with UTI89 bacteria and guinea pig red blood cells, as previously described (S. J. Hultgren, W. R. Schwan, A. J. Schaeffer, J. L. Duncan Infect. Immun. 1986, 54, 613-620 and Jarvis, C.; Han, Z.; Kalas, V.; Klein, R.; Pinkner, J. S.; Ford, B.; Binkley, J.; Cusumano, C. K.; Cusumano, Z.; Mydock-McGrane, L.; Hultgren, S. J.; Janetka, J. W., Chem Med Chem 2016, 11, 367-373). Values not listed were not tested.

Data set [1] in a line: Rat pharmacokinetics after IV infusion and oral dose (AUC oral, % F, Ue % PO). In kind it is in vivo, Male Wistar Han rats. The following applies: for DNAUC oral h*uM: PO 5 mg/kg, dose normalized AUC in blood, n = 3; for Ue% po: percentage of oral dose eliminated unchanged in urine (or estimate from iv urine fraction times oral bioavailability). From the text:
General Assays for Obtaining AUC Oral h*μm, % F, and Ue % PO Values
Male Wistar Han rats were purchased from Vital River Laboratory Animal Technology Co. Ltd (Beijing, China). The animals were approx. 6-8 weeks old with body weights of 200-300 g on the dosing date. The animals were housed in a 12-hour light/12-hour dark cycle environment and had free access to food and water. All animals were fed prior to dosing. Studies were approved by the Pharmaron Institutional Animal Care and Use Committee (IACUC).
Test article was administered as an intravenous infusion for 1 hour (1 mg/kg) at 5 mL/kg/h. After 48 h, animals received a single oral dose (5 mg/kg, free form) at a dose volume of 10 mL/kg, respectively. Blood samples were collected at various time points after IV infusion and PO administrations. Urine samples were collected at various time points after IV infusion and PO administrations (for some compounds).
Test article was dissolved in DMSO with vortexing and sonification to obtain a stock solution. An aliquot of the stock solution was mixed with 10% HP-β-CD in saline with vortexing to obtain a solution with concentration at 0.2 mg/mL of test article.
Test article was added into 1% Methyl Cellulose with vortexing and sonication to obtain a homogeneous suspension with concentration at 0.5 mg/mL of test article.
For IV infusion (1 mg/kg) administration, blood samples were collected from each animal at 0, 0.25, 0.5, 0.75, 1, 1.08, 1.25, 1.5, 1.75, 2, 3, 5, 8, 12, 24 hour post-dose.
For PO (5 mg/kg) administration, blood samples were collected from each animal at 0, 0.25, 0.5, 1, 1.5, 2, 3, 4, 6, 8, 12, 24 hour post-dose.
Blood samples (50 μL) were collected from each animal via jugular vein. These blood samples were placed into tubes containing K2EDTA. Whole blood was mixed with same volume of water and inverted several times. The blood samples were stored at −75±15° C. until analysis.
For IV infusion (1 mg/kg) administration, urine samples were collected from each animal at 0-4, 4-8, 8-12, 12-24 hour post-dose.
For PO (5 mg/kg) administration, urine samples were collected (for some compounds) from each animal at 0-4, 4-8, 8-12, 12-24 hour post-dose.
55 μL of standards, 55 μL of QC samples or 55 μL of unknown samples (50 μL of blood or urine with 5 μL 50% acetonitrile) were mixed to 200 μL of acetonitrile containing IS (dexamethasone) to precipitate proteins. Then the samples were vortexed for 30 sec. After centrifugation at 4° C., 4700 rpm for 30 min, and 5 μL of the supernatant was injected into the LC-MS/MS system for quantitative analysis.
Test article blood and urine concentrations for each animal following IV infusion at 1 mg/kg and PO at 5 mg/kg were used to calculate pharmacokinetic parameters by employing a non-compartmental analysis (Phoenix™ WinNonlin® 7.0). The linear trapezoidal algorithm was used for AUC calculation. • AUC oral h*μM: Area under the curve (AUC) of drug concentration in blood vs. time (units: h*μM) following oral administration • % F: Oral bioavailability (%) derived from the ratio of dose-normalized AUC following PO and IV administration • Ue % PO: Percentage of oral dose eliminated unchanged in urine or an estimater of that parameter generated from using the percentage of the iv dose eliminated in the urine times the oral bioavailability

Setting [2] is: oral bioavailability, PO 5 mg/kg vs IV infusion 1 mg/kg.

Turning to `CC[C@H](c1ccc(-c2cnc(C3CC3)cn2)cc1C)[C@H]1O[C@H](CO)[C@@H](O)[C@H](O)[C@@H]1O` [Example 22], the HAI entry on FimH is ““+++” (50-200)”.

For the compound `C=C[C@H](c1ccc(-c2cc(F)c3nccnc3c2)cc1C)[C@H]1O[C@H](CO)[C@@H](O)[C@H](O)[C@@H]1O` [Example 15], the HAI result at FimH was ““++++” (<50)”. The “DNAUC oral h*uM” value in data set [1] is on record as ““+” (<0.5 h · μM)”.

Regarding “(2R,3S,4R,5S,6R)-2-(Hydroxymethyl)-6-((R)-1-(2-methyl-4-(5-(trifluoromethyl)pyrazin-2-yl)phenyl)propyl)tetrahydro-2H-pyran-3,4,5-triol [Example 5]”, on FimH, the HAI entry was ““+++” (50-200)”. Moreover, in data set [1], the “DNAUC oral h*uM” value is given as ““+” (<0.5 h · μM)” and the Ue% po entry is ““++” (0.5 ≤ x ≤ 5%)”. Further, the “%F” value in data set [1] (setting [2]) was ““++” (10 ≤ x ≤ 30%)”.

In general, bioavailability refers to dose-corrected exposure relative to a reference, in per cent. Higher therefore signals good availability. Consider `Cc1cc(-c2cc(C(F)(F)F)ccn2)ccc1[C@@H](C)[C@H]1O[C@H](CO)[C@@H](O)[C@H](O)[C@@H]1O` (single isomer, unassigned) [Example 2], for which the HAI entry at FimH is recorded as ““+++” (50-200)”. Moreover, in data set [1], the “DNAUC oral h*uM” value was ““++” (0.5 ≤ x ≤ h · μM)” and the Ue% po entry is ““++” (0.5 ≤ x ≤ 5%)”. In data set [1] (male, Wistar Han, whole blood, oral bioavailability, PO 5 mg/kg vs IV infusion 1 mg/kg), this compound showed a bioavailability above 30%.

For `Cc1cc(-c2ccc(C(F)(F)F)cn2)ccc1[C@@H](C)[C@H]1O[C@H](CO)[C@@H](O)[C@H](O)[C@@H]1O` [Example 27], at FimH, the HAI result is ““+++” (50-200)”.

On to “(2R,3S,4R,5S,6R)-2-(Hydroxymethyl)-6-((R)-1-(2-methyl-4-(5-(trifluoromethyl)pyrazin-2-yl)phenyl)allyl)tetrahydro-2H-pyran-3,4,5-triol [Example 6]”, for which the HAI result on FimH was ““+++” (50-200)”. Moreover, the “DNAUC oral h*uM” value in data set [1] is reported as ““+” (<0.5 h · μM)”. In data set [1] (setting [2]), the “%F” value is recorded as ““++” (10 ≤ x ≤ 30%)”.

As to `Cc1cc(-c2cc(F)cc(F)c2)ccc1[C@@H](C)[C@H]1O[C@H](CO)[C@@H](O)[C@H](O)[C@@H]1O` (single isomer, unassigned) [Example 28], the HAI result at FimH is listed as ““+++” (50-200)”.

On to `C#C[C@@H](c1ccc(-c2cc(F)c(Cl)c(F)c2)cc1C)[C@H]1O[C@H](CO)[C@@H](O)[C@H](O)[C@@H]1O` (single isomer, unassigned) [Example 34], for which the HAI entry at FimH was ““+++” (50-200)”.

Turning to `Cc1cc(-c2cc(F)cc(F)c2)ccc1[C@@H](CO)[C@H]1O[C@H](CO)[C@@H](O)[C@H](O)[C@@H]1O` [Example 12], the HAI entry at FimH was ““+++” (50-200)”.

For `Cc1cc(-c2ccc(C(F)(F)F)nn2)ccc1C(C)[C@H]1O[C@H](CO)[C@@H](O)[C@H](O)[C@@H]1O` (some centres unmarked) [Example 31], the HAI result at FimH is ““++++” (<50)”.

As to `C[C@H](c1ccc(-c2cc(C(F)(F)F)ccn2)cc1C(F)(F)F)[C@H]1O[C@H](CO)[C@@H](O)[C@H](O)[C@@H]1O` [Example 32], at FimH, the HAI result is reported as ““+++” (50-200)”.

Take `Cc1cc(-c2cc(F)cc(F)c2)ccc1[C@@H](CCO)[C@H]1O[C@H](CO)[C@@H](O)[C@H](O)[C@@H]1O` [Example 11]: on FimH, the HAI result is recorded as ““+++” (50-200)”.

As for `C[C@H](c1ccc(-c2ccc(C(F)(F)F)cn2)cc1C(F)(F)F)[C@H]1O[C@H](CO)[C@@H](O)[C@H](O)[C@@H]1O` [Example 33], the HAI entry at FimH is ““+++” (50-200)”.

As for `CC[C@H](c1ccc(-c2cc(F)cc(C#N)c2)cc1C)[C@H]1O[C@H](CO)[C@@H](O)[C@H](O)[C@@H]1O` [Example 17], the “DNAUC oral h*uM” value in data set [1] is recorded as ““+” (<0.5 h · μM)”.

As for `Cc1cc(-c2cncc(F)c2)ccc1[C@@H](C)[C@H]1O[C@H](CO)[C@@H](O)[C@H](O)[C@@H]1O` [Example 30], the HAI entry on FimH is recorded as ““+++” (50-200)”.

Turning to `C=C[C@H](c1ccc(-c2cncc(C#N)c2)cc1C)[C@H]1O[C@H](CO)[C@@H](O)[C@H](O)[C@@H]1O` [Example 20], the HAI result at FimH is ““+++” (50-200)”.

With `C=C[C@H](c1ccc(-c2cc(F)cc(F)c2)cc1C)[C@H]1O[C@H](CO)[C@@H](O)[C@H](O)[C@@H]1O` [Example 13], the HAI result at FimH is reported as ““++” (201-1000)”.

The record behind these values is patent US12297223B2, “Compounds” (GLAXOSMITHKLINE INTELLECTUAL PROPERTY DEVELOPMENT LIMITED, priority 2019, dated 2025).
